In article PMC9822155, “Synthesis and Antiproliferative Activity against Cancer Cells of Indole-Aryl-Amide Derivatives” (Molecules, 2022):

How the values were obtained:
κ-OR = target: T1, κ-OR (Homo sapiens, UniProt P41145); experiment: Radioligand binding assay, κ-OR ([3H]U-69593 displacement); settings: [3H]U-69593, membranes of CHO cells with human recombinant OR; ± SEM (n ≥ 3)
T1 construct: purchased PerkinElmer (Krakow, Poland); host or cells: CHO cells (membranes)
Method: In order to evaluate the affinity of the compounds for μ-, δ-, κ-ORs, radioligand binding assays were performed. Displacement of radioligands, [^3H]DAMGO (μ-OR selective), [^3H]deltorphin-2 (δ-OR selective), and [^3H]U-69593 (κ-OR selective) by the synthetic analogs was investigated in the commercial membranes of CHO cells transfected with human recombinant ORs. […] Due to the modest receptor affinities, the functional activity of the compounds was not investigated.
Opioid radioligands, [^3H]DAMGO, [^3H]deltorphin-2 and [^3H]U-69593, and human recombinant opioid receptors came from PerkinElmer (Krakow, Poland). GF/B glass fiber strips were purchased from Whatman (Brentford, UK).
To determine the affinity of peptide analogs at the respective receptors, competition binding experiments were performed. Commercial membranes of CHO cells stably expressing human opioid receptors and the competing radioligands, [^3H]DAMGO, [^3H]deltorphin-2, and [^3H]U-69593 for μ-OR, δ-OR, and κ-OR, respectively, were used. Membranes were incubated in 0.5 mL volume of 50 mM Tris/HCl (pH = 7.4), 0.5% bovine serum albumin (BSA), with a number of peptidase inhibitors (bacitracin, bestatin, captopril) and various concentrations of radioligands for 2 h at 25 °C. Non-specific binding was assessed in the presence of […]. Three independent experiments for each assay were carried out in duplicate. The data were analyzed by a nonlinear least square regression analysis computer program Graph Pad PRISM 6.0 (Graph Pad Software Inc., San Diego, CA, USA). The IC50 values were determined from the logarithmic concentration-displacement curves, and the values of the inhibitory constants (Ki) were calculated according to the equation of Cheng and Prusoff.

[1] = tested on: p27, p21 and Bax proteins in HT29 cells; experiment: Western blot of p27, p21, Bax proteins; format: cell-based, human; settings: HT29, 5 μM, 24 h
Method: P27, p21, and Bax proteins expressions were analysed by western blot in control HT29 and treated with 5 μM of 5 for 24 h.
HT29 cells were seeded in 25 cm^2 flasks at a density of 2 × 10^4 cells/cm^2, and after 24 h, they were treated with 5 μM of compound 5. After 24 h, both treated and control cells were washed twice with PBS and lysed in RIPA buffer [50 mMTris/HCl, 150 mMNaCl, SDS (1% v/v), Triton X-100 (1% v/v), 1 mM EDTA, pH 7.6]. Cell lysates were centrifuged at 12,000× g for 20 min, and the protein concentration was determined by using the Bio-Rad protein assay method (Bio-Rad, Hercules, CA, USA). The proteins were detected resolving samples on a 12% gel in Tris-Glycine buffer at 200 V for 50 min. Western Blot was performed in transfer buffer at 100 V for 1 h. The nitrocellulose membrane was incubated with primary antibodies for rabbit anti-p21 (Millipore, Billerica, MA, USA) or rabbit anti-p27 (Millipore, Billerica, MA) or mouse anti-Bax (Millipore, Billerica, MA, USA) or mouse anti-α tubulin (Invitrogen, Walthman, MA, USA) for 1 h. Detection of immunoreactive bands was performed by using a rabbit or mouse HRP-conjugated secondary antibody (GE Healthcare, Milan, Italy), followed by Amersham ECL Plus Western Blotting Detection System (GE Healthcare, Milan, Italy). Densitometry analysis of immunoreactive bands was done by Fluor-S Max MultiImager (Bio-Rad, Hercules, CA, USA). Relative quantification of bands was performed by using an α-tubulin signal as control.

[2] = tested on: 3T3 (mouse embryonic fibroblast) cells; experiment: MTT viability assay, 3T3; format: cell-based; settings: 24 h, normal cells
Description: (§1) To investigate whether the compounds have an antitumor activity, we performed in vitro viability assays against a panel of cancer cell lines: HT29 (human colorectal adenocarcinoma), HeLa (human cervical carcinoma), IGROV-1 (human ovarian carcinoma), MCF7 (human breast cancer), PC-3 (human prostate adenocarcinoma), and Jurkat J6 (human […]). The I407 (human embryonic intestinal) and 3T3 (mouse embryonic fibroblast) cells were used as controls. The growth inhibitory concentration was determined by incubating the cells with increasing concentrations (0.01–500 μM) of the compounds for 24 h. Data obtained from cell growth assays were elaborated to assess the concentration of cell viability (IC50) and selectivity indices (SI), and the results are shown in Table 2 and Table 3, respectively.
(§2) HT29 human colorectal adenocarcinoma cells, HeLa human cervix adenocarcinoma cells, MCF7 human breast adenocarcinoma cells, PC-3 human prostate adenocarcinoma cells, J6 Jurkat Clone E6-1 acute T cell leukemia, the healthy I407 human intestine cells, and mouse embryonic fibroblast 3T3 fibroblasts as controls cell lines were purchased from American Type Culture Collection (ATCC, Manassas, VA). The human ovarian cancer cell line IGROV1 has been kindly provided by Prof. Colnaghi (Istituto Nazionale Tumori (IRCCS) (Milano, Italy). Cells were cultured in RPMI 1640 medium (Labtek Eurobio, Milan, Italy), supplemented with 10% FCS (Euroclone, Milano, Italy) and 2 mM L-glutamine (Sigma-Aldrich, Milano, Italy), at 37 °C, and a 5% CO2 atmosphere. The compounds were dissolved in DMSO in a 30–40 mM stock solution. In cell treatments, the final DMSO concentration never exceeded 0.1%.
(§3) Cells were seeded at 1.5 × 10^4 cells/well in a 96-well culture plastic plate (Sarsted, Milan, Italy), and after 24 h of growth were exposed to increasing concentrations of each distinct compound (from 0.010 μM to 500 μM) solubilized in RPMI 1640 medium. MTT assay was performed according to the literature. In brief, after 24 h of treatment, the culture medium was replaced with 0.1 mL of 3-(4,5-dimethylthiazolyl-2)-2,5-diphenyltetrazolium bromide (MTT, Sigma-Aldrich, Milano, Italy) dissolved in PBS at the concentration of 0.2 mg/mL, and samples were incubated for 2 h at 37 °C. The absorbance at 570 nm was measured using a multiwell plate reader (Tecan, Männemorf, Switzerland), and data were analyzed by Prism GraphPad software, and expressed as IC50 μM.

[3] = tested on: HeLa (human cervical carcinoma) cells; experiment: MTT viability assay, HeLa; format: cell-based; settings: Homo sapiens; MTT, 24 h
Description: as §1, §2, §3

T1 sequence (P41145 whole entry): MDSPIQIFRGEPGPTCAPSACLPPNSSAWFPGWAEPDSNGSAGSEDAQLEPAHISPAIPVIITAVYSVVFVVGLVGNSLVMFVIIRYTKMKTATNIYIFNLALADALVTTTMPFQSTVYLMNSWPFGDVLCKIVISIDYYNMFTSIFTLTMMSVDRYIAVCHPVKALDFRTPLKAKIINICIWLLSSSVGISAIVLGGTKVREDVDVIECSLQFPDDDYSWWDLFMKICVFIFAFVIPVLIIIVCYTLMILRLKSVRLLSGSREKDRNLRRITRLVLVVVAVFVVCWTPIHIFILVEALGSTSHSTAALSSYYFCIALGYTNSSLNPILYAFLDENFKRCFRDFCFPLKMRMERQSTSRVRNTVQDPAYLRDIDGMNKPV

## Nc1ccc(CN(Cc2ccc(O)cc2)C(=O)Cc2c[nH]c3ccccc23)cc1 [Compound 5]
κ-OR
  Ki: 3.8 ± 0.52 µM
  Ki (µM) κ-OR: low μM range
[1]
  Bax protein expression: increase
  p21 protein expression: increase
  p27 protein expression: did not modify the expression
[2]
  IC50: 32 ± 0.02 µM
[3]
  IC50: > 500 µM
